{"source": "patent US8710089B2", "about": "“Triazole derivatives as ghrelin analogue ligands of growth hormone secretagogue receptors” (Zentaris GmbH, priority 2005, dated 2014)", "note": "pIC50: −log10 of the molar value."}
{"target": "T1, human GHS-R 1a (Homo sapiens, UniProt Q92847)", "T1 construct": "expressed in transfected cells; host or cells: LLC PK-1 porcine renal epithelial cells (ECACC No. 86121112), isolated plasma membranes", "T1 sequence (Q92847 whole entry)": "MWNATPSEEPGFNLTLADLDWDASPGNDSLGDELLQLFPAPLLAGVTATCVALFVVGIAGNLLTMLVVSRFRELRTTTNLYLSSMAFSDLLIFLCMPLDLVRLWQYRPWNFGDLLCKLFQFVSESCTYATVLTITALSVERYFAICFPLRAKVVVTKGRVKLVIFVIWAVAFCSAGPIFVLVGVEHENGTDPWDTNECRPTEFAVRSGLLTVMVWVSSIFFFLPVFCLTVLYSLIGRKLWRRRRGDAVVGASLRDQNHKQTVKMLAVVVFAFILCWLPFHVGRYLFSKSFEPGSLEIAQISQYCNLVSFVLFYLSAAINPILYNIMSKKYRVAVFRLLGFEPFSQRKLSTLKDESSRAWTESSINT", "experiment": "GHS-R 1a receptor-ligand binding assay (membrane preparations from transfected LLC PK-1 cells)", "conditions": "displacement of 125I-His9-ghrelin (60 pM); membranes of LLC PK-1 cells transfected with human GHS-R 1a; mean of at least two independent experiments in triplicates", "procedure": "(J. Med. […] Med. Chem. 2003, 46: 1191-1203), were incubated in homogenization buffer HB [50 mM Tris (pH 7.3), 5 mM MgCl2, 2.5 mM EDTA, and 30 μg/mL bacitracin (Sigma)] for 60 min at 25° C. (steady-state conditions) with 60 pM ^125I-[…]-ghrelin (Amersham) in the presence or absence of competing compounds (compounds of the invention). […] Nonspecific binding was defined using an excess (10^-6 M) of ghrelin. The binding reaction was stopped by addition of 4 mL of ice-cold HB followed by rapid filtration over Whatman GP/C filters presoaked with 0.5% polyethyleneimine to prevent excessive binding of radioligand to the filters. […] IC50 values given are the mean of at least two independent experiments performed in triplicates."}
{"smiles": "COc1ccc(Cn2c(CCCc3c[nH]c4ccccc34)nnc2[C@@H](Cc2c[nH]c3ccccc23)NC(=O)C(C)(C)N)cc1", "note": "[compound 23, (R)—N-(1-(5-(3-(1H-indol-3-yl)propyl)-4-(4-methoxybenzyl)-4H-1,2,4-triazol-3-yl)-2-(1H-indol-3-yl)ethyl)-2-amino-2-methylpropanamide]", "pIC50": 7.43}
{"smiles": "COc1ccc(Cn2c(CCc3c[nH]c4ccccc34)nnc2[C@@H](Cc2c[nH]c3ccccc23)NC(=O)[C@H]2CCCNC2)cc1", "note": "[compound 87, (S)—N—((R)-1-(5-(2-(1H-indol-3-yl)ethyl)-4-(4-methoxybenzyl)-4H-1,2,4-triazol-3-yl)-2-(1H-indol-3-yl)ethyl)piperidine-3-carboxamide]", "pIC50": 8.00}
{"smiles": "Cc1ccc(Cn2c(CCCc3ccccc3)nnc2[C@@H](Cc2c[nH]c3ccccc23)NC(=O)C(C)(C)N)cc1", "note": "[compound 33, (R)—N-(1-(4-(4-methylbenzyl)-5-(3-phenylpropyl)-4H-1,2,4-triazol-3-yl)-2-(1H-indol-3-yl)ethyl)-2-amino-2-methylpropanamide]", "pIC50": 7.52}
{"smiles": "CCCCCCn1c(CCc2c[nH]c3ccccc23)nnc1[C@@H](Cc1c[nH]c2ccccc12)NC(=O)C(C)(C)N", "note": "[compound 15, (R)—N-(1-(5-(2-(1H-indol-3-yl)ethyl)-4-hexyl-4H-1,2,4-triazol-3-yl)-2-(1H-indol-3-yl)ethyl)-2-amino-2-methylpropanamide]", "pIC50": 6.92}
{"smiles": "CC(C)(N)C(=O)N[C@H](Cc1c[nH]c2ccccc12)c1nnc(CCCc2c[nH]c3ccccc23)n1Cc1cccc2ccccc12", "note": "[compound 11, (R)—N-(1-(5-(3-(1H-indol-3-yl)propyl)-4-(naphthalen-1-ylmethyl)-4H-1,2,4-triazol-3-yl)-2-(1H-indol-3-yl)ethyl)-2-amino-2-methylpropanamide]", "pIC50": 6.86}
{"smiles": "COc1ccc(Cn2c(CCc3ccccc3)nnc2[C@@H](Cc2c[nH]c3ccccc23)NC(=O)[C@@H]2CCCNC2)cc1", "note": "[compound 42, (R)—N—((R)-1-(4-(4-methoxybenzyl)-5-phenethyl-4H-1,2,4-triazol-3-yl)-2-(1H-indol-3-yl)ethyl)piperidine-3-carboxamide]", "pIC50": 8.15}
{"smiles": "O=C(N[C@H](Cc1c[nH]c2ccccc12)c1nnc(CCc2ccccc2)n1Cc1ccco1)c1ccccn1", "note": "[compound 182, N—((R)-1-(4-((furan-2-yl)methyl)-5-phenethyl-4H-1,2,4-triazol-3-yl)-2-(1H-indol-3-yl)ethyl)picolinamide]", "pIC50": 7.09}
{"smiles": "COc1ccccc1Cn1c(CCc2ccccc2)nnc1[C@@H](Cc1c[nH]c2ccccc12)NC(=O)C(C)(C)N", "note": "[compound 26, (R)—N-(1-(4-(2-methoxybenzyl)-5-phenethyl-4H-1,2,4-triazol-3-yl)-2-(1H-indol-3-yl)ethyl)-2-amino-2-methylpropanamide]", "pIC50": 7.25}
{"smiles": "COc1ccc(Cn2c(CCc3ccccc3)nnc2[C@@H](Cc2c[nH]c3ccccc23)NC(=O)CCN)cc1", "note": "[compound 56, (R)—N-(1-(4-(4-methoxybenzyl)-5-phenethyl-4H-1,2,4-triazol-3-yl)-2-(1H-indol-3-yl)ethyl)-3-aminopropanamide]", "pIC50": 7.23}
{"smiles": "COc1ccc(Cn2c(CCc3c[nH]c4ccccc34)nnc2[C@@H](Cc2c[nH]c3ccccc23)NC(=O)Cc2ccccn2)c(OC)c1", "note": "[compound 61, (R)—N-(1-(5-(2-(1H-indol-3-yl)ethyl)-4-(2,4-dimethoxybenzyl)-4H-1,2,4-triazol-3-yl)-2-(1H-indol-3-yl)ethyl)-2-(pyridin-2-yl)acetamide]", "pIC50": 7.47}
{"smiles": "CCc1ccc(Cn2c(CCc3ccccc3)nnc2[C@@H](Cc2c[nH]c3ccccc23)NC(=O)c2cnccn2)cc1", "note": "[compound 85, (R)—N-(1-(4-(4-ethylbenzyl)-5-phenethyl-4H-1,2,4-triazol-3-yl)-2-(1H-indol-3-yl)ethyl)pyrazine-2-carboxamide]", "pIC50": 7.05}
{"smiles": "O=C(N[C@H](Cc1c[nH]c2ccccc12)c1nnc(CCc2c[nH]c3ccccc23)n1Cc1ccccc1)C1CCCNC1", "note": "(mixture of isomers) [compound 55, (R)—N-(1-(5-(2-(1H-indol-3-yl)ethyl)-4-benzyl-4H-1,2,4-triazol-3-yl)-2-(1H-indol-3-yl)ethyl)piperidine-3-carboxamide]", "pIC50": 7.96}
{"smiles": "COc1ccc(Cn2c(CCc3ccccc3)nnc2[C@@H](Cc2c[nH]c3ccccc23)NC(=O)[C@H]2CCCNC2)cc1", "note": "[compound 41, (S)—N—((R)-1-(4-(4-methoxybenzyl)-5-phenethyl-4H-1,2,4-triazol-3-yl)-2-(1H-indol-3-yl)ethyl)piperidine-3-carboxamide]", "pIC50": 7.80}
{"smiles": "COc1ccc(Cn2c(CCc3c[nH]c4ccccc34)nnc2[C@@H](Cc2c[nH]c3ccccc23)NC(=O)[C@@H]2CCCN2)cc1", "note": "[compound 89, (S)—N—((R)-1-(5-(2-(1H-indol-3-yl)ethyl)-4-(4-methoxybenzyl)-4H-1,2,4-triazol-3-yl)-2-(1H-indol-3-yl)ethyl)pyrrolidine-2-carboxamide]", "pIC50": 8.05}
{"smiles": "CC(C)(N)C(=O)N[C@H](Cc1c[nH]c2ccccc12)c1nnc(CCc2c[nH]c3ccccc23)n1-c1ccccc1", "note": "[compound 175, N—((R)-1-(5-(2-(1H-indol-3-yl)ethyl)-4-phenyl-4H-1,2,4-triazol-3-yl)-2-(1H-indol-3-yl)ethyl)-2-amino-2-methylpropanamide]", "pIC50": 6.85}
{"smiles": "CCc1ccc(Cn2c(CCc3ccccc3)nnc2[C@@H](Cc2c[nH]c3ccccc23)NC(=O)C2CNCCN2)cc1", "note": "(mixture of isomers) [compound 84]", "pIC50": 6.61}
{"smiles": "COc1ccc(Cn2c(CCc3ccccc3)nnc2[C@@H](Cc2c[nH]c3ccccc23)NCCN)c(OC)c1", "note": "[compound 180, N-1-((R)-1-(4-(2,4-dimethoxybenzyl)-5-phenethyl-4H-1,2,4-triazol-3-yl)-2-(1H-indol-3-yl)ethyl)ethane-1,2-diamine]", "pIC50": 6.72}
{"smiles": "CC(C)(N)C(=O)N[C@H](Cc1c[nH]c2ccccc12)c1nnc(CCc2c[nH]c3ccccc23)n1Cc1ccc(Cl)c(Cl)c1", "note": "[compound 28, (R)—N-(1-(5-(2-(1H-indol-3-yl)ethyl)-4-(3,4-dichlorobenzyl)-4H-1,2,4-triazol-3-yl)-2-(1H-indol-3-yl)ethyl)-2-amino-2-methylpropanamide]", "pIC50": 7.10}
{"smiles": "CC(C)(N)C(=O)N[C@H](Cc1c[nH]c2ccccc12)c1nnc(CCc2ccccc2)n1Cc1cccc2ccccc12", "note": "[compound 27, (R)—N-(2-(1H-indol-3-yl)-1-(4-(naphthalen-1-ylmethyl)-5-phenethyl-4H-1,2,4-triazol-3-yl)ethyl)-2-amino-2-methylpropanamide]", "pIC50": 6.90}
{"smiles": "COc1cccc(Cn2c(CCc3ccccc3)nnc2[C@@H](Cc2c[nH]c3ccccc23)NC(=O)C(C)(C)N)c1", "note": "[compound 19, (R)—N-(1-(4-(3-methoxybenzyl)-5-phenethyl-4H-1,2,4-triazol-3-yl)-2-(1H-indol-3-yl)ethyl)-2-amino-2-methylpropanamide]", "pIC50": 7.11}
{"smiles": "COc1ccc(Cn2c(CCc3ccccc3)nnc2[C@@H](Cc2c[nH]c3ccccc23)NC(=O)c2ccccc2)cc1", "note": "[compound 176, N—((R)-1-(4-(4-methoxybenzyl)-5-phenethyl-4H-1,2,4-triazol-3-yl)-2-(1H-indol-3-yl)ethyl)benzamide]", "pIC50": 7.10}
{"smiles": "COc1ccc(Cn2c(CCc3ccccc3)nnc2[C@@H](Cc2c[nH]c3ccccc23)NC(=O)C2CCCCC2)cc1", "note": "[compound 53, (R)—N-(1-(4-(4-methoxybenzyl)-5-phenethyl-4H-1,2,4-triazol-3-yl)-2-(1H-indol-3-yl)ethyl)cyclohexanecarboxamide]", "pIC50": 7.74}
{"smiles": "COc1ccc(Cn2c(CCc3ccccc3)nnc2[C@@H](Cc2c[nH]c3ccccc23)NC(=O)c2ccncc2)cc1", "note": "[compound 77, (R)—N-(1-(4-(4-methoxybenzyl)-5-phenethyl-4H-1,2,4-triazol-3-yl)-2-(1H-indol-3-yl)ethyl)isonicotinamide]", "pIC50": 6.92}
{"smiles": "O=C(N[C@H](Cc1c[nH]c2ccccc12)c1nnc(CCc2c[nH]c3ccccc23)n1Cc1ccccc1)C1CCNCC1", "note": "[compound 54, (R)—N-(1-(5-(2-(1H-indol-3-yl)ethyl)-4-benzyl-4H-1,2,4-triazol-3-yl)-2-(1H-indol-3-yl)ethyl)piperidine-4-carboxamide]", "pIC50": 7.46}
{"smiles": "COc1ccc(Cn2c(CCc3ccccc3)nnc2[C@@H](Cc2c[nH]c3ccccc23)NC(=O)C2CNCCN2)cc1", "note": "(some centres unmarked) [compound 78]", "pIC50": 7.27}
{"smiles": "COc1ccc(Cn2c(CCc3c[nH]c4ccccc34)nnc2[C@@H](Cc2c[nH]c3ccccc23)NC(=O)Cc2ccccn2)cc1", "note": "[compound 91, (R)—N-(1-(5-(2-(1H-indol-3-yl)ethyl)-4-(4-methoxybenzyl)-4H-1,2,4-triazol-3-yl)-2-(1H-indol-3-yl)ethyl)-2-(pyridin-2-yl)acetamide]", "pIC50": 7.96}
{"smiles": "COc1ccc(Cn2c(CCc3c[nH]c4ccccc34)nnc2[C@@H](Cc2c[nH]c3ccccc23)NC(=O)C2CCNCC2)cc1", "note": "[compound 45, (R)—N-(1-(5-(2-(1H-indol-3-yl)ethyl)-4-(4-methoxybenzyl)-4H-1,2,4-triazol-3-yl)-2-(1H-indol-3-yl)ethyl)piperidine-4-carboxamide]", "pIC50": 9.52}
{"smiles": "COc1ccc(Cn2c(CCc3ccccc3)nnc2[C@@H](Cc2c[nH]c3ccccc23)NC(=O)CN)c(OC)c1", "note": "[compound 75, (R)—N-(1-(4-(2,4-dimethoxybenzyl)-5-phenethyl-4H-1,2,4-triazol-3-yl)-2-(1H-indol-3-yl)ethyl)-2-aminoacetamide]", "pIC50": 6.85}
{"smiles": "Cc1ccc(Cn2c(CCc3ccccc3)nnc2[C@@H](Cc2c[nH]c3ccccc23)NC(=O)C(C)(C)N)cc1", "note": "[compound 37, (R)—N-(1-(4-(4-methylbenzyl)-5-phenethyl-4H-1,2,4-triazol-3-yl)-2-(1H-indol-3-yl)ethyl)-2-amino-2-methylpropanamide]", "pIC50": 6.87}
